From patent US6506766B1 (Abbott Laboratories, priority 1998, dated 2003)
Like-named read-outs stand apart in the source and are kept apart here.

What was measured:
[1] = molecular target: T1, human progesterone receptor-A [PRA] isoform (Homo sapiens, UniProt P06401); experiment: Radioligand binding with human progesterone receptor cytosol ([3H]-progesterone competition)
T1 construct: host or cells: insect SF21 cells (baculovirus)
T1 sequence (P06401 1-769 isoform P06401-2): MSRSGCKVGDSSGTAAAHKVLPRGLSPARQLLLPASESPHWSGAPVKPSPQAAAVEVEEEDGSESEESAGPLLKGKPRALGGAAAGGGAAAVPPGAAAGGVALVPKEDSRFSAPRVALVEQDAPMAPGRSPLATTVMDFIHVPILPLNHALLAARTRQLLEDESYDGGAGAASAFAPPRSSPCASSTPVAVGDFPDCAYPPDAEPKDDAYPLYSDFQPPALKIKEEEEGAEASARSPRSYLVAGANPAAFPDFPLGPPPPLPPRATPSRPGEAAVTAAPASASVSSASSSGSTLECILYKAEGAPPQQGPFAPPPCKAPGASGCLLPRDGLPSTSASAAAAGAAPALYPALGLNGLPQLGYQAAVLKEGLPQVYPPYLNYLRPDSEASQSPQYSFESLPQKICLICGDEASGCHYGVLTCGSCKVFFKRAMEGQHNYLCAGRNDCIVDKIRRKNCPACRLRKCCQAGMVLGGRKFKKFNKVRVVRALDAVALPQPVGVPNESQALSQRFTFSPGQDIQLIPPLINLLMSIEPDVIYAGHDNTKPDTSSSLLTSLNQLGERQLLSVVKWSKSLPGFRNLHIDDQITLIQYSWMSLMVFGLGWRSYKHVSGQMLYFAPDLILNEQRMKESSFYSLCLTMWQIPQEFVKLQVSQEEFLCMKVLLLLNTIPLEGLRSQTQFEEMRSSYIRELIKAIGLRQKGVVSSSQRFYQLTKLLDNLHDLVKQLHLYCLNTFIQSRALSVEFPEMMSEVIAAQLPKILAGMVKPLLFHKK

[2] = molecular target: T2, human glucocorticoid receptor-α [GRX] isoform (Homo sapiens, UniProt P04150); experiment: Radioligand binding with human glucocorticoid receptor cytosol ([3H]-dexamethasone competition)
T2 construct: host or cells: insect SF21 cells (baculovirus)
T2 sequence (P04150 1-777): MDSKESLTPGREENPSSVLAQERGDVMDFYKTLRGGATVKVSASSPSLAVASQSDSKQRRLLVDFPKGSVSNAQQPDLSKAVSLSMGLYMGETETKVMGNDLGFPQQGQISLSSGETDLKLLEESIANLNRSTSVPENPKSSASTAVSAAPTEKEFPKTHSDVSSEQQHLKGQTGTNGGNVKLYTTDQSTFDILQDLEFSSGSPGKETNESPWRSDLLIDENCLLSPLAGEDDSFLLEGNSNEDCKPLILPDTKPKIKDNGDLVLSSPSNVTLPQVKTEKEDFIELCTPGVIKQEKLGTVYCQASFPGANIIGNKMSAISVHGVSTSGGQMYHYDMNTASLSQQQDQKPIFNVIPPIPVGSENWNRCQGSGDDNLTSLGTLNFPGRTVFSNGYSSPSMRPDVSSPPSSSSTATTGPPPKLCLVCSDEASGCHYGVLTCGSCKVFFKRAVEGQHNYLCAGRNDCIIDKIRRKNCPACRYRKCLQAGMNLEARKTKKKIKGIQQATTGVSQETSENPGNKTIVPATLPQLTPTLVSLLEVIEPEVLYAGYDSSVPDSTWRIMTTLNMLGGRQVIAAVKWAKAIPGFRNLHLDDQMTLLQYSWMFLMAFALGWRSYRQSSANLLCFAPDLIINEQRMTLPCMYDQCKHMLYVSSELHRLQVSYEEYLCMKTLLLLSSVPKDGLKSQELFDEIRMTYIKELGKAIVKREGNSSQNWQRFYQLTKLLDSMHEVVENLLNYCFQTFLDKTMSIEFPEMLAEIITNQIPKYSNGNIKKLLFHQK

[3] = PRA cytosol expressed in insect SF21 cells, [3H]Prog ~0.8 nM, 4° C. overnight, Ki by Cheng-Prusoff, KL ~4.5 nM, read-out: Ki (nM) PR
[4] = GRX cytosol expressed in insect SF21 cells, [3H]-Dex ~0.9 nM, 4° C. overnight, Ki by Cheng-Prusoff, KL ~[…], read-out: Ki (nM) GR

| Compound | Ki [1, 3] [nM] | Ki [2, 4] [nM] | other results |
| --- | --- | --- | --- |
| C=CCC1Oc2cccc(OC)c2-c2ccc3c(c21)C(C)=CC(C)(C)N3 (single isomer, unassigned; (+)) [Example 37, (+)-2,5-Dihydro-10-methoxy-2,2,4-trimethyl-5-(2-propenyl)-1H-[1]benzopyrano[3,4-f]quinoline] | ≥ 10000 | 20 |  |
| C=CCC1Oc2ccc(OC(=O)CCCC(=O)N3CCOCC3)c(OC)c2-c2ccc3c(c21)C(C)=CC(C)(C)N3 (stereo not shown) [Example 440] | 390 | 0.7 |  |
| COCOCCC1Oc2cccc(OC)c2-c2ccc3c(c21)C(C)=CC(C)(C)N3 (stereo not shown) [Example 205, 2,5-Dihydro-10-methoxy-5-(2-methoxymethoxyethyl)-2,2,4-trimethyl-1H-[1]benzopyrano[3,4-f]quinoline] | ≥ 10000 | 11.4 |  |
| COc1cccc2c1-c1ccc3c(c1C(c1cccs1)O2)C(C)=CC(C)(C)N3 (stereo not shown) [Example 129, 2,5-Dihydro-10-methoxy-2,2,4-trimethyl-5-(2-thienyl)-1H-[1]benzopyrano[3,4-f]quinoline] | 3620 | 5.5 |  |
| C=CCC1Oc2ccc(OC(=O)CCCC(=O)N(C)C)c(OC)c2-c2ccc3c(c21)C(C)=CC(C)(C)N3 (stereo not shown) [Example 438] | 129 | 0.89 |  |
| C=CCC1Oc2c(C(C)=O)ccc(OC)c2-c2ccc3c(c21)C(C)=CC(C)(C)N3 (stereo not shown) [Example 306, 10-Methoxy-7-acetyl-5-(3-propenyl)-2,2,4-trimethyl-1H-2,5-dihydro-[1]benzopyrano[3,4-f]quinoline] | 4460 | 717 |  |
| COc1c(O)ccc2c1-c1ccc3c(c1C(c1cccc(OC(C)=O)c1)O2)C(C)=CC(C)(C)N3 (stereo not shown) [Example 395, 2,5-Dihydro-9-hydroxy-10-methoxy-2,2,4-trimethyl-5-(3-acetoxyphenyl)-1H-[1]benzopyrano[3,4-f]quinoline] | 1210 | 2.1 |  |
| C=C=C(C)C1Oc2cccc(OC)c2-c2ccc3c(c21)C(C)=CC(C)(C)N3 (stereo not shown) [Example 210, 2,5-Dihydro-10-methoxy-5-(-methylpropa-1,2-dienyl)-2,2,4-trimethyl-1H-[1]benzopyrano[3,4-f]quinoline] |  |  | Ki ([1]; read-out: Ki (nM) PR): 710 nM; Ki ([2]; read-out: Ki (nM) GR): 21 nM |
| C=CCC1Oc2ccc(C(=O)OC)c(OC)c2-c2ccc3c(c21)C(C)=CC(C)(C)N3 (stereo not shown) [Example 388, 2,5-Dihydro-9-methylcarboxylate-10-methoxy-2,2,4-trimethyl-5-allyl-1H-[1]benzopyrano[3,4-f]quinoline] | 199 | 2.8 |  |
| COc1cccc2c1-c1ccc3c(c1[C@@H]([C@H]1C=C(CO)CCC1)O2)C(C)=CC(C)(C)N3 (relative stereo) [Example 149] | 4060 | 2.7 |  |
| COc1c(O)ccc2c1-c1ccc3c(c1C(c1ccccc1OC(=O)N(C)C)O2)C(C)=CC(C)(C)N3 (stereo not shown) [Example 402] |  |  | Ki ([1]; Ki (nM) PR): 10100 nM; Ki ([2]; Ki (nM) GR): 3.3 nM |
| COc1cccc2c1-c1ccc3c(c1C(c1cc(C)cc(-c4ccco4)c1)O2)C(C)=CC(C)(C)N3 (stereo not shown) [Example 16, 5-[3-(2-Furanyl)-5-methylphenyl]-2,5-dihydro-10-methoxy-2,2,4-trimethyl-1H-[1]benzopyrano[3,4-f]quinoline] | ≥ 10000 | 8 |  |
| COc1cccc2c1-c1ccc3c(c1C(c1cccc(OC(=O)N4CCOCC4)c1)O2)C(C)=CC(C)(C)N3 (stereo not shown) [Example 100, [(2,5-Dihydro-10-methoxy-2,2,4-trimethyl-1H-[1]benzopyrano[3,4-f]quinolin-5-yl)phenyl]1-morpholinecarboxylate] | ≥ 10000 | 7.8 |  |
| COc1cccc2c1-c1ccc3c(c1C(c1ccc(OCc4ccccc4)cc1)O2)C(C)=CC(C)(C)N3 (stereo not shown) [Example 98, 2,5-Dihydro-10-methoxy-2,2,4-trimethyl-5-[4-(phenylmethoxy)phenyl]-1H-[1]benzopyranol[3,4-f]quinoline] | ≥ 10000 | 9.8 |  |
| COc1c(O)ccc2c1-c1ccc3c(c1/C(=C/c1cc(F)ccc1F)O2)C(C)=CC(C)(C)N3 [Example 366, Z-5-(2,5-Difluorobenzylidenyl)-9-hydroxy-10-methoxy-2,2,4-trimethyl-1H-2,5-dihydro-[1]benzopyrano[3,4-f]quinoline] | 83.9 | 2.1 |  |
| 2,5-Dihydro-10-methoxy-5-(3,3-dimethyl-6-cyclohexenyl)-2,2,4-trimethyl-1H-[1]benzopyrano[3,4-f]quinoline [Example 146] |  |  | Ki ([1]; read-out: Ki (nM) PR): 8300 nM; Ki ([2]; read-out: Ki (nM) GR): 8.3 nM |
| CC1=CC(C)(C)Nc2ccc3c(c21)C(CC(C)C)Oc1ccc(O)c(Cl)c1-3 (stereo not shown) [Example 409, 2,5-Dihydro-9-hydroxy-10-chloro-2,2,4-trimethyl-5-(2-methylpropyl)-1H-[1]benzopyrano[3,4-f]quinoline] | 42 | 2.7 |  |
| COC(=O)/C=C/C1Oc2cccc(OC)c2-c2ccc3c(c21)C(C)=CC(C)(C)N3 (stereo not shown) [Example 179, (E) 2,5-Dihydro-10-methoxy-5-(2-carbomethoxy-1-ethenyl)-2,2,4-trimethyl-1H-[1]benzopyrano[3,4-f]quinoline] | 2750 | 9.5 |  |
| COc1cccc2c1-c1ccc3c(c1C(c1cc(F)cc(F)c1)O2)C(C)=CC(C)(C)N3 (stereo not shown) [Example 34, 5-(3,5-Difluorophenyl)-2,5-dihydro-10-methoxy-2,2,4-trimethyl-1H-[1]benzopyrano[3,4-f]quinoline] | 4710 | 4 |  |
| C=CCCC1Oc2cccc(OC)c2-c2ccc3c(c21)C(C)=CC(C)(C)N3 (stereo not shown) [Example 68, 5-(32-Butenyl)-2,5-dihdro-10-methoxy-2,2,4-trimethyl-1H -1H-[1]benzopyrano[3,4-f]quinoline] | 9050 | 8 |  |
| C=CCC1Oc2ccc(OC(=O)CCCC(=O)N(CC)CC)c(OC)c2-c2ccc3c(c21)C(C)=CC(C)(C)N3 (stereo not shown) [Example 437] | 449 | 0.97 |  |
| COc1c(O)ccc2c1-c1ccc3c(c1[C@H]([C@H]1C=CCCCC1)O2)C(C)=CC(C)(C)N3 [Example 247, (−)(5S,3′R)2,5-Dihydro-9-hydroxy-10-methoxy-2,2,4-trimethyl-5-(3-cycloheptenyl)-1H-[1]benzopyrano[3,4-f]quinoline] | 195 | 0.86 |  |
| COc1cccc2c1-c1ccc3c(c1C([C@@H]1C=C(CN(C)C)CCC1)O2)C(C)=CC(C)(C)N3 (stereo in doubt) [Example 169, rel (5R, 3′S) 2,5-Dihydro-10-methoxy-5-(1-(N,N dimethylamino)methyl-3-cyclohexenyl)-2,2,4-trimethyl-1H-[1]benzopyrano[3,4-f]quinoline] | ≥ 10000 | 300 |  |
| C=CCC1Oc2cccc(NC)c2-c2ccc3c(c21)C(C)=CC(C)(C)N3 (stereo not shown) [Example 3, 2,5-Dihydro-2,2,4,N-tetramethyl-5-(2-propenyl)-1H-[1]benzopyrano[3,4-f]quinolin-10-amine] | 2650 | 4.8 |  |
| CC1=C[C@H]([C@H]2Oc3ccc(O)c(Cl)c3-c3ccc4c(c32)C(C)=CC(C)(C)N4)CCC1 [Example 420] | 2400 | 125 |  |
| COc1c(O)ccc2c1-c1ccc3c(c1[C@H]([C@@H]1C=CCCC1)O2)C(C)=CC(C)(C)N3 [Example 272, (−)(5S,3′S)2,5-Dihydro-9-hydroxy-10-methoxy-2,2,4-trimethyl-5-(3-cyclohexenyl)-1H-[1]benzopyrano[3,4-f]quinoline] | 66.4 | 0.39 |  |
